Assay [1] can be described thus: Luminescence Cell-Based Dose Retest to Confirm Activators of 5'UTR Stem-Loop Driven Alpha-Synuclein mRNA Translation in H4 Neuroglioblastoma Cells. [Related pubchem assays (depositor defined):AID1813, AID1829]. In kind it is functional.
Assay [2] is described as follows: Luminescence Cell-Based Dose Response HTS to Identify Activators of Luciferase Translation or Activity in H4-C Neuroglioblastoma Cells. [Related pubchem assays: 1829 (Project Summary), 1814 (Primary HTS)]. In kind it is functional.
Assay [3] is described as follows: Luminescence Cell-Based Dose Response HTS to Identify Activators of 5'UTR Stem-Loop Driven Prion Protein mRNA Translation in H4-C Neuroglioblastoma Cells. [Related pubchem assays: 1829 (Project Summary), 1814 (Primary HTS)]. In kind it is functional.
Assay [4] can be described thus: Luminescence Cell-Based Dose Confirmation HTS to Identify Activators of 5'UTR Stem-Loop Driven Alpha-Synuclein mRNA Translation in H4 Neuroglioblastoma Cells. [Related pubchem assays: 1829 (Project Summary), 1814 (Primary HTS)]. In kind it is functional.
A short description of assay [5]: Luminescence Cell-Based Dose Response HTS to Identify Activators of Luciferase Translation or Activity in H4 […] Cells. [Related pubchem assays: 1829 (Project Summary), 1814 (Primary HTS)]. In kind it is functional.
The next assay has as its system H4. The assay can be described thus: Luminescence Cell-Based Dose Response HTS to Identify Activators of 5'UTR Stem-Loop Driven Prion Protein mRNA Translation in H4 Neuroglioblastoma Cells. [Related pubchem assays: 1829 (Project Summary), 1814 (Primary HTS)]. In kind it is functional. Conditions: Homo sapiens.
For the next assay, the target named is T1, Coagulation factor XII (Homo sapiens, UniProt P00748).
T1 sequence (P00748 whole entry): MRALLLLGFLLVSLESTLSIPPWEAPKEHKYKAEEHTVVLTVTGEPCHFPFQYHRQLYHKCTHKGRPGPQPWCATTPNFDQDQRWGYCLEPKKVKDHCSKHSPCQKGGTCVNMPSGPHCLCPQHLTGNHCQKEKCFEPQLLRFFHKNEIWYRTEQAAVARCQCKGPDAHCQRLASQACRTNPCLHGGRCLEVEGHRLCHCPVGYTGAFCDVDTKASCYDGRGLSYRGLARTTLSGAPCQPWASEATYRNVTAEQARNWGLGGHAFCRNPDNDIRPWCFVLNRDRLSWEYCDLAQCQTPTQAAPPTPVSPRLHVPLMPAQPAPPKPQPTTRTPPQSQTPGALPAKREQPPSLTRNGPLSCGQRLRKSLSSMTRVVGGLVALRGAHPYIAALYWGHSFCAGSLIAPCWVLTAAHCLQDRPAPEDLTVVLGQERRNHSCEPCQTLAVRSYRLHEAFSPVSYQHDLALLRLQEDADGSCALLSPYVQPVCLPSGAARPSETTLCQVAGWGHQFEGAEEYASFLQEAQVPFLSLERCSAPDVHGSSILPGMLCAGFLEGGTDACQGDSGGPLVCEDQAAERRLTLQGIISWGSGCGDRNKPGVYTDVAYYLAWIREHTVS
The assay can be described thus: activated coagulation factor XII inhibitor potency, concentration-effect curve, cell-free (AID 716). In kind it is functional.

The target of assay [6] is T2, Ubiquitin-conjugating enzyme E2 N (Homo sapiens, UniProt P61088).
T2 sequence (P61088 whole entry): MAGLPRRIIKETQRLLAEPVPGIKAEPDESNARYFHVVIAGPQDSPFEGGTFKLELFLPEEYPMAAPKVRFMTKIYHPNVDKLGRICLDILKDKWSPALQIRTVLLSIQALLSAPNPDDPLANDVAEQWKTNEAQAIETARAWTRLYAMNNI
In kind it is functional.

Another assay concerns Vero. Nature of the assay: cells. Format: functional. Conditions: Chlorocebus sabaeus.
In assay [7] the target is T2, Ubiquitin-conjugating enzyme E2 N. In kind it is functional. The source holds these as a separate data set.
The nature of assay [8]: viability of PTEN-deleted HCT116 cells – cell-based, HCT116 PTEN knockout, dose response (AID 1047).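 Further: HCT116 colon tumor cells with PTEN knocked out; cells exposed to compound for 60 hours before readout; potency for loss of cell viability measured by luminescence.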 Format: functional.
The target in assay [9] is Female germline-specific tumor suppressor gld-1 (Caenorhabditis elegans, UniProt Q17339). Nature of the assay: blockers of GLD-1/TGE RNA complex formation – biochemical, fluorescence polarization, C. elegans, dose response (AID 2802).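 Further: fluorescence polarization of labeled TGE RNA bound by purified gld-1 protein.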
A further assay addresses T3, Bcl-2-related protein A1 (Mus musculus, UniProt Q07440).
T3 sequence (Q07440 whole entry): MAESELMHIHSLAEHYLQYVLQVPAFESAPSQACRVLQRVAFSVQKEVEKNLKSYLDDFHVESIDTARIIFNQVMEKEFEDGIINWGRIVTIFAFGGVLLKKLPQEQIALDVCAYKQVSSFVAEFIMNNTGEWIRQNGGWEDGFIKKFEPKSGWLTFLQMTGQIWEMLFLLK
In kind it is functional.

Assay [10] is described as follows: viability of HCT116 lacking mutant beta-catenin – cell-based, human colon tumor, dose response (AID 1045).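 Further: HCT116 colon tumor cells with beta catenin knocked out; cells exposed to compound for 60 hours.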 Format: functional.
A further assay deals with Protein Rev (Human immunodeficiency virus type 1 group M subtype B (isolate HXB2)(HIV-1), UniProt P04618). The assay can be described thus: blockers of HIV Rev/RRE RNA complex – biochemical, fluorescence polarization, HIV-1, dose response (AID 434976). The arrangement: species or system Human immunodeficiency virus 1. (Fluorescence polarisation rises when a labelled molecule tumbles more slowly, as on binding a larger partner.)

Assay [11] has as its system BJ. The assay can be described thus: BJ-TERT fibroblast viability loss – cell-based, RAS-independent, luminescence, dose response (AID 1933). Format: functional. Conditions: Homo sapiens.
Assay [12] concerns BJ. Nature of the assay: cells. Conditions: Homo sapiens. Format: functional, cell-based.
Assay [13] deals with Envelope glycoprotein gp160 (Human immunodeficiency virus 1, UniProt Q6QLK5). Nature of the assay: cell-free HIV fusion peptide-binding blockers – biochemical, uHTS, fluorescence dequenching, […] (AID 1986).
Assay [14] has as its system BJ. Nature of the assay: BJ-TERT-LT-ST fibroblast viability loss – cell-based, RAS-independent, luminescence, dose response (AID 1935).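 Further: BJ fibroblasts immortalized with TERT plus LT and ST oncogenes.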 Conditions: Homo sapiens. In kind it is functional.
A short description of assay [15]: DRD fibroblast viability loss – cell-based, non-viral oncogenic, luminescence, dose response (AID 1934). Conditions: Homo sapiens. Format: functional.
A further assay concerns HEK293. Nature of the assay: cells. As to conditions: Homo sapiens.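 Further: cells exposed to compound for 14 hours overnight before viability readout.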
For another assay, the target named is Tumor necrosis factor (Homo sapiens, UniProt P01375). Nature of the assay: analog potency on TNFa NF-kB signaling – cell-based, revised, SAR follow-up (AID 2337). In kind it is functional.
In the next assay the target is T4, Interleukin-8 (Homo sapiens, UniProt P10145).
T4 sequence (P10145 whole entry): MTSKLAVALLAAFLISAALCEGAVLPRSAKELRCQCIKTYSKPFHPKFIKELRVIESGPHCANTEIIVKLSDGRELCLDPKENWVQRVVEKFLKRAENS
Nature of the assay: SAR analysis of tumor necrosis factor alpha (TNF-alpha) induced IL-8 secretion in MCF-7/NOD1 cells. [Related pubchem assays (depositor defined):AID1575, AID2250, AID2260]. In kind it is functional, cell-based.

The target of the next assay is Trypsin (Sus scrofa, UniProt P00761). The assay can be described thus: trypsin protease activity blockade – biochemical, quenched peptide fluorescence, cherry-pick, selectivity assay for Rce1 protease inhibitor project, dose response (AID 488789).

Each structure is given as a SMILES string. Activity calls are given as the source filed them. Some results are limits rather than exact numbers.

The EC50 is the concentration that produces a half-maximal response. As a reminder, the IC50 is the concentration needed to halve the response being measured. What is called CC50 is the concentration giving 50% cytotoxicity. By AC50 is commonly meant the concentration at which the activity in the assay is half-maximal.

Protein Rev, sequence (P04618 whole entry): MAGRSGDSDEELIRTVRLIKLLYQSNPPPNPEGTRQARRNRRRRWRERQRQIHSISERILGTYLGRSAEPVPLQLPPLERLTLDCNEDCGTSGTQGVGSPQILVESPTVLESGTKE
Female germline-specific tumor suppressor gld-1, sequence (Q17339 whole entry): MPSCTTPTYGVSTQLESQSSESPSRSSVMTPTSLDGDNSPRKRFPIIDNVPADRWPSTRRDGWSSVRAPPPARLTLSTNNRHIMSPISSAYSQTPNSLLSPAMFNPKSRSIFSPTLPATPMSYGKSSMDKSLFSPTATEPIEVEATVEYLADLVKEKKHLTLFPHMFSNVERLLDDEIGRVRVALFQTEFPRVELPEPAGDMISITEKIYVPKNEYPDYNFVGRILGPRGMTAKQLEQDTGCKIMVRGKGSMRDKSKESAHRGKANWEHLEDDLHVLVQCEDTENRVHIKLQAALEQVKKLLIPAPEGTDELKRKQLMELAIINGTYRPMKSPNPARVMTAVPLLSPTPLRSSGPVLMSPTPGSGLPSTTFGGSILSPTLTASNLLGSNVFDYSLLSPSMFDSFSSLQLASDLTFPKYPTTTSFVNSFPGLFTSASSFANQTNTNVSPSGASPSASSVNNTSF
Tumor necrosis factor, sequence (P01375 whole entry): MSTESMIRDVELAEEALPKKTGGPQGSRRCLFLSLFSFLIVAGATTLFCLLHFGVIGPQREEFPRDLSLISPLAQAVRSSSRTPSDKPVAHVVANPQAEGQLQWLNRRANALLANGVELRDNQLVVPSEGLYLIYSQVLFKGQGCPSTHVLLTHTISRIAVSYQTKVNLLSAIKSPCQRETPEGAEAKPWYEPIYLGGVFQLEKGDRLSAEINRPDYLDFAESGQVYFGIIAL
Trypsin, sequence (P00761 whole entry): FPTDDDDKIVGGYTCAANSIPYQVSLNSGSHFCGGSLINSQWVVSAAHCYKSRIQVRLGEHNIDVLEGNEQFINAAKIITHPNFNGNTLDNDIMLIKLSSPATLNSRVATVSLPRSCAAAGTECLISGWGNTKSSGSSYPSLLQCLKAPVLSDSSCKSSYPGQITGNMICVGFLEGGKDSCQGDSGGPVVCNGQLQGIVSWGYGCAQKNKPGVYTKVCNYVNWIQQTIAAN
Envelope glycoprotein gp160, sequence (Q6QLK5 whole entry, the tested form may be a part): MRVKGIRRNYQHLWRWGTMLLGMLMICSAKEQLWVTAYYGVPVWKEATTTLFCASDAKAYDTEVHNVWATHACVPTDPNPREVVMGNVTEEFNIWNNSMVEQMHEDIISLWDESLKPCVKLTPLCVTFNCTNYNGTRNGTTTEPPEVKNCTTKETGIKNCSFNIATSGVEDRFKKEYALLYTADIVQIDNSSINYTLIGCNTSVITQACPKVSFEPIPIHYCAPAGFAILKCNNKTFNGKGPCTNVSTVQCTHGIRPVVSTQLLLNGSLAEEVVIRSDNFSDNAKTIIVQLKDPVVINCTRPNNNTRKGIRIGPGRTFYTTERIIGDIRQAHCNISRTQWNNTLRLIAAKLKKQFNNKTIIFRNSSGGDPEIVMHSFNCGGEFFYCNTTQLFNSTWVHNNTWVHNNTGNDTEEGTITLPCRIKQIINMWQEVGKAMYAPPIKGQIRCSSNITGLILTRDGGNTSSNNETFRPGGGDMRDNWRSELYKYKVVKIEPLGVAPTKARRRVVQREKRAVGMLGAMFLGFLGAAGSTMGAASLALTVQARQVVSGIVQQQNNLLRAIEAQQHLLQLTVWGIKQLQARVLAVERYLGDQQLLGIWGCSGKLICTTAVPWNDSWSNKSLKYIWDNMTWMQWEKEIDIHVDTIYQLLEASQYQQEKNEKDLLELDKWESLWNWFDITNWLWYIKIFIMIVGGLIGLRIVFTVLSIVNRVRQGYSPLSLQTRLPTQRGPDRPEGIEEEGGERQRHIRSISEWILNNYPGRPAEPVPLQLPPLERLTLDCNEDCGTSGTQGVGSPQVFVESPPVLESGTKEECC

On to `Cc1nn(C)c(Sc2ccccn2)c1[N+](=O)[O-]`, for which the EC50 is > 195 µM (inactive) in assay [1]; > 195 µM (not active) in [2]; > 195 µM (not active) in [3]; 1.7 µM (active) in assay [4]; 88.4 µM (active) in [5]; > 120 µM (not active) with H4.
On to `Cc1ccc(NC(=O)C[S+]([O-])CC(=O)NCC2CCCO2)cc1` (centres undefined), for which the IC50 on Coagulation factor XII was > 50 µM (inactive).
Turning to `CN1CC2=Cc3ccccc3OC23Oc2ccccc2C=C3C1`, the IC50 in assay [6] was 2.55 µM (active); in assay [7], 3.5 µM (active); in [9] it was > 59.6 µM (inactive); on Bcl-2-related protein A1 it was > 20 µM (inactive); against Protein Rev, > 75.4 µM (not active). Also, in the assay with Vero, the CC50 is 18.9 µM (active). For the same compound, the results for the EC50 in assay [8] and in [10] were 25 µM (active) and 23 µM (active), respectively.
As for `O=C(O)CN1C(=O)/C(=C\c2cn(-c3ccccc3)nc2-c2ccccc2)SC1=S`, the EC50 in the assay on BJ [11] is 31.1 µM (active); in the assay with BJ [12] it was > 150 µM (not active); with BJ [14], > 150 µM (not active); in assay [15] it was 41.4 µM (active). In assay [13], the IC50 is > 99 µM (inactive).
As for `Nc1nc2ccccc2n1S(=O)(=O)c1ccc([N+](=O)[O-])cc1`, the IC50 with HEK293 was > 20 µM (inactive); on Tumor necrosis factor, > 20 µM (inactive); at Interleukin-8, > 5 µM (inactive).
As for `COc1cccc(-c2ccc(-c3noc(-c4ccccc4F)n3)c(OC)n2)c1`, the AC50 at Trypsin is 14.3 µM (active).

For the origin of these results see ChEMBL document CHEMBL1201862, “PubChem BioAssay data set” (2004).
